One test has as its system male Wistar rats. Briefly: Experiment 2: effect of the compound on blood pressure in rats under calcium chloride and norepinephrine infusion. It counts as in vivo, rat. Here is the method:
Eight-week old male Wistar rats weighing 310-330 g were used in this experiment. The rats were anesthetized with 1,000 mg/kg of urethane and 80 mg/kg of α-chloralose by subperitoneal injection, and natural respiration was maintained. In this experiment, 100 mg of the compound was dissolved in 1 ml of dimethylsulfoxide (DMSO) and the resulting DMSO solution of the compound was stored at 4° C. Norepinephrine solution was prepared by dissolving 1 mg of norepinephrine in 41 μl of distilled water.
Similarly to Experiment 1, this experiment was performed at 20 to 25° C. Furthermore, similarly to Experiment 1, continuous infusion catheters of calcium chloride solution or norepinephrine solution containing calcium chloride were inserted into the right external jugular veins of the rats, and microchip catheters (SPC-320, Millar) were inserted into the aorta via the right common arteries.
A 1-lead electrocardiogram and the systolic pressure and diastolic pressure were recorded on a personal computer via an A/D converter. In the preparation step, blood pressure, pulse, and electrocardiogram of the rats were monitored for 15 minutes and allowed to stabilize, and then 5% dextrose solution containing calcium chloride (at a concentration based on the weight of the rat) was infused into the right external jugular vein for 25 minutes at 16.6 μl/min (9.0 mg/kg/min of calcium chloride).
Secondly, norepinephrine solution containing calcium chloride without changes in the dosage regimen was immediately injected at a rate of 40 μg/kg/min (in the form of a norepinephrine solution containing calcium chloride). Five minutes after commencement of injection (intravenous injection) of norepinephrine, continuous injection of calcium chloride and norepinephrine in the form of a norepinephrine solution containing calcium chloride was started, and 0.2 ml of 1% DMSO solution as a solvent control was administered over 30 seconds to the first rat (weight: 310 g) via the right femoral vein; this rat was defined as Control 3. After the solvent control was injected, 1% DMSO solution as a solvent control was additionally administered to Control 3 at 10 μl/min from commencement of solvent control injection to 15 minutes after the start of administration. Similarly to Control 3, 5 minutes after commencement of injection (intravenous injection) of norepinephrine in the form of a norepinephrine solution containing the calcium chloride, continuous injection of the calcium chloride and norepinephrine in the form of a norepinephrine solution containing calcium chloride was started, and 0.2 ml of 1% DMSO solution containing 0.3 mg/kg of the compound was administered over 30 seconds to a second rat (weight: 330 g; referred to as Test drug 3), and 1% DMSO solution containing 0.02 mg/kg of the test drug was then administered for 14 minutes at a rate of 0.02 mg/kg/min. Systolic pressure (mmHg) and diastolic pressure (mmHg) of each rat were measured at 20 heart beats every 2 minutes for 14 minutes after commencement of intravenous injection of the test drug. Mean blood pressure was calculated from the measured systolic pressure (mmHg) and diastolic pressure (mmHg) according to the following formula: mean blood pressure=[…].

The subject of the next test is myosin light chains. Briefly: Experiment 5: amount of precipitate of myosin light chains. It counts as binding, swine. The conditions noted are these: concentration of the compound 10^−3 mol. The protocol:
In this experiment, the effects of the compound were studied on the amount of precipitate of myosin light chains, which is a component of the troponin test sample used in Experiment 4.
A sample buffer for polyacrylamide gel electrophoresis (SDS-PAGE) was added to each washed test precipitate, which was prepared in the manner described above, and mixed well to suspend the test precipitate. The resulting suspension was electrophoresed on a gel (PAG MINI “No. 1” 10/20) for about 1 hour at 40 mA. After electrophoresis, the suspension was silver-stained using “Daiichi” 2D-silver staining reagent (Daiichi Pure Chemicals Co., Ltd), and washed with distilled water and dried. The amount of precipitate in each silver-stained protein band obtained by gel electrophoresis was quantitated using a densitometer. […] The protein band from gel electrophoresis was stained using a reagent for mass spectrometry (silver staining reagent for mass spectrometry, Wako Pure Chemical Industries Ltd.), and a peptide fragment obtained from the protein that gave the band in gel electrophoresis was analyzed using high performance liquid chromatography (MAGIC2002, Michrom BioResources, Inc, USA).

Each structure is given as a SMILES string.

These results are taken from patent US20070219180A1, “Muscle Relaxtion Accelerator and Therapeutic Agent for Muscular Tissue Diseases Such as Muscle Relaxation Failure” (priority 2004, published 2007).

As to `COc1ccc2c(c1)CN(C(=O)CCN1CCC(Cc3ccccc3)CC1)CCS2` [the compound, 4-[3-(4-benzylpiperidine-1-yl)propionyl]-7-methoxy-2,3,4,5-tetrahydro-1,4-benzothiazepine], the Mean blood pressure came to 136 mmHg in the test on male Wistar rats (Test drug 3: 0.3 mg/kg i.v. over 30 s then 0.02 mg/kg/min for 14 min, 0 minutes (just before the start of test drug administration)); 125 mmHg with male Wistar rats (Test drug 3: 0.3 mg/kg i.v. over 30 s then 0.02 mg/kg/min for 14 min, 5 minutes before test drug (just before the start of norepinephrine), baseline); 122 mmHg in the test with male Wistar rats (Test drug 3: 0.3 mg/kg i.v. over 30 s then 0.02 mg/kg/min for 14 min, 30 minutes before test drug (5 minutes before the start of CaCl2), baseline); 149 mmHg in the test with male Wistar rats (Test drug 3: 0.3 mg/kg i.v. over 30 s then 0.02 mg/kg/min, CaCl2 + norepinephrine infusion, 2 minutes after the start of test drug administration); 162 mmHg in the test on male Wistar rats (Test drug 3: 0.3 mg/kg i.v. over 30 s then 0.02 mg/kg/min, CaCl2 + norepinephrine infusion, 4 minutes after the start of test drug administration); 141 mmHg in the test with male Wistar rats (Test drug 3: 0.3 mg/kg i.v. over 30 s then 0.02 mg/kg/min, CaCl2 + norepinephrine infusion, 6 minutes after the start of test drug administration). Further, the Mean blood pressure with male Wistar rats (Test drug 3: 0.3 mg/kg i.v. over 30 s then 0.02 mg/kg/min, CaCl2 + norepinephrine infusion, 8 minutes after the start of test drug administration) amounted to 139 mmHg; in the test with male Wistar rats (Test drug 3: 0.3 mg/kg i.v. over 30 s then 0.02 mg/kg/min, CaCl2 + norepinephrine infusion, 10 minutes after the start of test drug administration), 135 mmHg; in the test with male Wistar rats (Test drug 3: 0.3 mg/kg i.v. over 30 s then 0.02 mg/kg/min, CaCl2 + norepinephrine infusion, 12 minutes after the start of test drug administration) it was 136 mmHg; in the test on male Wistar rats (Test drug 3: 0.3 mg/kg i.v. over 30 s then 0.02 mg/kg/min, CaCl2 + norepinephrine infusion, 14 minutes after the start of test drug administration), 134 mmHg. The entries for the “The amount of precipitate of myosin light chains (ratio to Test 1 = 1.0)” value with myosin light chains (Test 3: Ca^2+ concentration 0 mol) and in the test with myosin light chains (Test 4: Ca^2+ concentration 10^−5 mol) were 1.5 and 1.4, respectively.
